Measured values from patent US20070092577A1, “Dietary calcium for reducing the production of reactive oxygen species” (University of Tennessee Research Foundation, priority 2005, published 2007).

Key:
[1] = test system: 3T3-L1 adipocytes; assay: DNA synthesis / cell proliferation (CyQUANT); type: cell-based, murine; details: 48 hours
Procedure: 3T3-L1 preadipocytes were incubated at a density of 8000 cells/cm^2 (10 cm^2 dish) and grown in Dulbecco's modified Eagle's medium (DMEM) containing 10% FBS and antibiotics (adipocyte medium) at 37° C. in 5% CO2 in air. Confluent preadipocytes were induced to differentiate with a standard differentiation medium consisting of DMEM-F 10 (1:1, vol/vol) medium supplemented with 1% FBS, 1 μM dexamethasone, IBMX (0.5 mM) and antibiotics (1% Penicillin-Streptomycin). Preadipocytes were maintained in this differentiation medium for 3 days and subsequently cultured in adipocyte medium. Cultures were re-fed every 2-3 days to allow 90% of cells to reach full differentiation before conducting chemical treatment. Chemicals were freshly diluted in adipocyte medium before treatment. Cells were washed with fresh adipocyte medium, re-fed with medium containing the different treatments, and incubated at 37° C. in 5% CO2 in air before analysis. Cell viability was measured via trypan blue exclusion. Cells were plated in DMEM with different treatment in duplicate in 96-well plates. After 48 h, a CyQUANT Cell Proliferation Kit (Molecular Probes, Eugene, Oreg.) was used following the manufacturer's protocol a microplate fluorometer (Packard Instrument Company, Inc., Downers Grove, Ill.) was used to measure CyQUANT fluorescence. Cell viability was determined by Trypan blue exclusion examination.

[2] = test system: IL-6; assay: IL-6 expression in differentiated 3T3-L1 adipocytes; type: cell-based, mouse; details: for effect on IL-6 expression: 10 nmol/L, 48 h, adipocytes cultured alone
Procedure: 3T3-L1 pre-adipocytes were incubated at a density of 8000 cells/cm^2 (10 cm^2 dish) and grown in Dulbecco's modified Eagle's medium (DMEM) containing 10% FBS and antibiotics (adipocyte medium) at 37° C. in 5% CO2 in air. Confluent pre-adipocytes were induced to differentiate with a standard differentiation medium consisting of DMEM-F10 (1:1, vol/vol) medium supplemented with 1% fetal bovine serum (FBS), 1 μM dexamethasone, isobutylmethylxanthine (IBMX) (0.5 mM) and antibiotics (1% Penicillin-Streptomycin). Pre-adipocytes were maintained in this differentiation medium for 3 days and subsequently cultured in adipocyte medium. Cultures were re-fed every 2-3 days to allow 90% cells to reach fully differentiation before conducting chemical treatment.
Cells were incubated in serum free medium overnight before chemical treatment. Chemicals were freshly diluted in adipocyte medium before treatment. […] Cell viability was measured via trypan blue exclusion.
Adipocyte and muscle 18s, TNFα, IL-6, IL-8, IL-15 and adiponectin were quantitatively measured using a smart cycler real-time PCR system (Cepheid, Sunnyvale, Calif.) with a TaqMan 1000 Core Reagent Kit (Applied Biosystems, Branchburg, N.J.). The primers and probe sets were obtained from Applied Biosystems TaqMan® Assays-on-Demand™ Gene Expression primers and probe set collection and utilized according to manufacture's instructions. Pooled adipocyte total RNA was serial-diluted in the range of 1.5625-25 ng and used to establish a standard curve; and total RNA for the unknown samples were also diluted in this range. Reactions of quantitative RT-PCR for standards and unknown samples were also performed according to the instructions of Smart Cycler System (Cepheid, Sunnyvale, Calif.) and TaqMan Real Time PCR Core Kit (Applied Biosystems, Branchburg, N.J.). The mRNA quantitation for each sample was further normalized using the corresponding 18s quantitation.
RAW 264 macrophages and 3T3-L1 preadipocytes (American Type Culture Collection) were incubated at a density of 8000 cells/cm2 (10 cm2 dish) and grown in Dulbecco's modified Eagle's medium (DMEM) containing 10% FBS and antibiotics (adipocyte medium) at 37° C. in 5% CO2 in air. […]
Adipocyte and muscle 18s, CD14, TNFα, MIP, M-CSF, IL-6 and MCP-1 were quantitatively measured using a Smart Cycler Real Time PCR System (Cepheid, Sunnyvale, Calif.) with a TaqMan 1000 Core Reagent Kit (Applied Biosystems, Branchburg, N.J.). […] Reactions of quantitative RT-PCR for standards and unknown samples were also performed according to the instructions of Smart Cycler System (Cepheid, Sunnyvale, Calif.) and TaqMan Real Time PCR Core Kit (Applied Biosystems, Branchburg, N.J.). The mRNA quantitation for each sample was further normalized using the corresponding 18s quantitation.

[3] = test system: IL-15; assay: IL-15 expression in differentiated 3T3-L1 adipocytes; type: cell-based, mouse
Procedure: 3T3-L1 pre-adipocytes were incubated at a density of 8000 cells/cm^2 (10 cm^2 dish) and grown in Dulbecco's modified Eagle's medium (DMEM) containing 10% FBS and antibiotics (adipocyte medium) at 37° C. in 5% CO2 in air. Confluent pre-adipocytes were induced to differentiate with a standard differentiation medium consisting of DMEM-F10 (1:1, vol/vol) medium supplemented with 1% fetal bovine serum (FBS), 1 μM dexamethasone, isobutylmethylxanthine (IBMX) (0.5 mM) and antibiotics (1% Penicillin-Streptomycin). Pre-adipocytes were maintained in this differentiation medium for 3 days and subsequently cultured in adipocyte medium. Cultures were re-fed every 2-3 days to allow 90% cells to reach fully differentiation before conducting chemical treatment. […] Cell viability was measured via trypan blue exclusion. Adipocyte and muscle 18s, TNFα, IL-6, IL-8, IL-15 and adiponectin were quantitatively measured using a smart cycler real-time PCR system (Cepheid, Sunnyvale, Calif.) with a TaqMan 1000 Core Reagent Kit (Applied Biosystems, Branchburg, N.J.). […] Reactions of quantitative RT-PCR for standards and unknown samples were also performed according to the instructions of Smart Cycler System (Cepheid, Sunnyvale, Calif.) and TaqMan Real Time PCR Core Kit (Applied Biosystems, Branchburg, N.J.). The mRNA quantitation for each sample was further normalized using the corresponding 18s quantitation.

OO [H2O2, hydrogen peroxide]
increase of total DNA of cultured cells ([1]; H2O2 100 nmol/L, p<0.001): 39% | increase of IL-6 expression ([2]; 100 nmol/L H2O2, 48 h, p<0.001): 167% | effect on IL-15 expression ([3]; 100 nmol/L H2O2, 48 h): no direct effect

C=C1/C(=C\C=C2/CCC[C@]3(C)[C@@H]([C@H](C)CCCC(C)(C)O)CC[C@@H]23)C[C@@H](O)C[C@@H]1O [calcitriol, 1, 25-Dihydroxyvitamin D]
effect on glucose induced DNA synthesis ([1]; added to glucose 30 mmol/L, nifedipine 10 μmol/L): augmented | effect on IL-6 expression [2]: markedly stimulate | effect on IL-6 expression ([2]; listed as 1α, 25-(OH)2-D3): markedly increased

Cc1c(C)c2c(c(C)c1O)CC[C@@](C)(CCC[C@H](C)CCC[C@H](C)CCCC(C)C)O2 [α-tocopherol]
effect on H2O2 induced DNA synthesis ([1]; with H2O2 100 nmol/L, α-tocopherol 1 μmol/L, nifedipine 10 μmol/L): completely blocked | effect on hydrogen peroxide increased IL-6 expression ([2]; 1 μmol/L α±tocopherol plus 100 nmol/L H2O2, 48 h, p=0.016): attenuated | increase of IL-15 as compared to H2O2-treated cells ([3]; 1 μmol/L α±tocopherol added to 100 nmol/L H2O2, 48 h, P=0.043): 2.2 fold
